The values that follow come from patent US10647747B2, “Cyclosporin derivatives and uses thereof” (S&T Global Inc., priority 2010, dated 2020).

Each structure is given as a SMILES string. *1 amine or outer side, *2 acyl side, *3 side chain or, on linkers, in order; H or OH if unused. Where a SMILES comes first, the peptide text is derived from it. [ ]: non-standard residue; d: D form. The star is where a group is joined. ξ: configuration not given here. MeBmt = C/C=C/C[C@@H](C)[C@@H](O)[C@H](NC)C(=O)O; X8 = CCN(CC)CCS[C@@H](C(=O)[*:2])N(C)[*:1]; X6 = CCN(CC)CCS[C@H](C(=O)[*:2])N(C)[*:1]; X3 = CC=CCC(C)C(O)C(C(=O)[*:2])N(C)[*:1]; NMeIle(3ξ) = CCC(C)[C@H](NC)C(=O)O; NMeI = CC[CH](C)[CH](NC)C(=O)O; NMeL = CN[CH](CC(C)C)C(=O)O; NMeV = CN[CH](C(=O)O)C(C)C; Et2NCH2CH2 = CCN(CC)CC*; NMeS = CN[CH](CO)C(=O)O; Abu = CC[CH](N)C(=O)O

One assay concerns HCV replicon in cell line ET (luc-ubi-neo/ET), Huh7 human hepatoma. Briefly: HCV subgenomic replicon assay, luciferase end point. In kind it is cell-based. The conditions noted are these: HCV subgenomic replicon, cell line ET (luc-ubi-neo/ET) Huh7, luciferase end point; read-out: Antiviral activity EC50. On the technique in general: Replicon systems follow genome replication, usually without infectious particles.
As to `C/C=C/C[C@@H](C)[C@@H](O)[C@H]1C(=O)N[C@@H](CC)C(=O)N(C)[C@H](CSCCN(C)C)C(=O)N(C)[C@@H](CC(C)(C)O)C(=O)N[C@@H](C(C)C)C(=O)N(C)[C@@H](CC(C)C)C(=O)N[C@@H](C)C(=O)N[C@H](C)C(=O)N(C)[C@@H](CC(C)C)C(=O)N(C)[C@@H](CC(C)C)C(=O)N(C)[C@@H](C(C)C)C(=O)N1C` (single isomer, unassigned; isomer b) [listing 1 of 2 here], the EC50 – broadly, the concentration at which the effect is half-maximal – was 130 nM.

Regarding `C/C=C/C[C@@H](C)[C@@H](O)[C@H]1C(=O)N[C@@H](CC)C(=O)N(C)[C@H](CSCCN(CC)CC)C(=O)N(C)[C@@H](CC(C)(C)O)C(=O)N[C@@H](C(C)C)C(=O)N(C)[C@@H](CC(C)C)C(=O)N[C@@H](C)C(=O)N[C@H](C)C(=O)N(C)[C@@H](CC(C)C)C(=O)N(C)[C@@H](CC(C)C)C(=O)N(C)[C@@H](C(C)C)C(=O)N1C` (single isomer, unassigned; isomer b), the EC50 was 90 nM.

Take `C/C=C/C[C@@H](C)[C@@H](O)[C@H]1C(=O)N[C@@H](CC)C(=O)N(C)[C@H](CSCCN(CC)CC)C(=O)N(C)[C@@H](CC(C)C)C(=O)N[C@@H](C(C)C)C(=O)N(C)[C@@H](CC(C)C)C(=O)N[C@@H](C)C(=O)N[C@H](C)C(=O)N(C)[C@@H](CC(C)C)C(=O)N(C)[C@@H](CC(C)C)C(=O)N(C)[C@@H](C(C)C)C(=O)N1C` (single isomer, unassigned; isomer b) [[(S)-(2-(N,N-Diethylamino)ethylthio)methyl-Sar]-3-cyclosporin (isomer B)]: the EC50 amounted to 160 nM.

In the case of `C/C=C/C[C@@H](C)[C@@H](O)[C@H]1C(=O)N[C@@H](CC)C(=O)N(C)[C@H](CSCCN(C)C)C(=O)N(C)[C@@H](CC(C)C)C(=O)N[C@@H](C(C)C)C(=O)N(C)[C@@H](CC(C)C)C(=O)N[C@@H](C)C(=O)N[C@H](C)C(=O)N(C)[C@@H](CC(C)C)C(=O)N(C)[C@@H](CC(C)C)C(=O)N(C)[C@@H](C(C)C)C(=O)N1C` (single isomer, unassigned; isomer b) [[(S)-(2-(N,N-Dimethylamino)ethylthio)methyl-Sar]-3-cyclosporin (isomer B)], the half-maximal effective concentration (EC50) worked out at 170 nM.

With `CC=CCC(C)C(O)C1C(=O)NC(CC)C(=O)N(C)C(COCCN(CC)CC)C(=O)N(C)C(C(C)CC)C(=O)NC(C(C)C)C(=O)N(C)C(CC(C)C)C(=O)NC(C)C(=O)NC(C)C(=O)N(C)C(CC(C)C)C(=O)N(C)C(CC(C)C)C(=O)N(C)C(C(C)C)C(=O)N1C` [[(R)-(2-(N,N-Diethylamino)ethoxy)methyl-Sar]-3-[N-MeIle]-4-cyclosporin] (cyclo([X3][Abu][NMeS](Et2NCH2CH2)[NMeI]V[NMeL]AA[NMeL][NMeL][NMeV]); configuration not given here), the half-maximal effective concentration (EC50) was found to be 160 nM.

As to `CC=CCC(C)C(O)C1C(=O)NC(CC)C(=O)N(C)C(COCCN2CCOCC2)C(=O)N(C)C(CC(C)(C)OC)C(=O)NC(C(C)C)C(=O)N(C)C(CC(C)C)C(=O)NC(C)C(=O)NC(C)C(=O)N(C)C(CC(C)C)C(=O)N(C)C(CC(C)C)C(=O)N(C)C(C(C)C)C(=O)N1C` [[(R)-(2-(N-Morpholino)ethoxy)methyl-Sar]-3-[(γ-methoxy)-N-MeLeu]-4-cyclosporin], the concentration for a half-maximal effect (EC50) was 150 nM.

For the compound `CC=CCC(C)C(O)C1C(=O)NC(CC)C(=O)N(C)C(COCCN2CCCCC2)C(=O)N(C)C(CC(C)(C)O)C(=O)NC(C(C)C)C(=O)N(C)C(CC(C)C)C(=O)NC(C)C(=O)NC(C)C(=O)N(C)C(CC(C)C)C(=O)N(C)C(CC(C)C)C(=O)N(C)C(C(C)C)C(=O)N1C` [[(R)-(2-(N-Piperidinyl)ethoxy)methyl-Sar]-3-[(γ-hydroxy)-N-MeLeu]-4-cyclosporin], the EC50 was found to be 140 nM.

As to `CC=CCC(C)C(O)C1C(=O)NC(CC)C(=O)N(C)C(COCCN2CCCC2)C(=O)N(C)C(CC(C)(C)O)C(=O)NC(C(C)C)C(=O)N(C)C(CC(C)C)C(=O)NC(C)C(=O)NC(C)C(=O)N(C)C(CC(C)C)C(=O)N(C)C(CC(C)C)C(=O)N(C)C(C(C)C)C(=O)N1C` [[(R)-(2-(N-Pyrrolidino)ethoxy)methyl-Sar]-3-[(γ-hydroxy)-N-MeLeu]-4-cyclosporin], the EC50 is 200 nM.

As to `C/C=C/C[C@@H](C)[C@@H](O)[C@H]1C(=O)N[C@@H](CC)C(=O)N(C)[C@H](COCCCN2CCOCC2)C(=O)N(C)[C@@H](CC(C)(C)O)C(=O)N[C@@H](C(C)C)C(=O)N(C)[C@@H](CC(C)C)C(=O)N[C@@H](C)C(=O)N[C@H](C)C(=O)N(C)[C@@H](CC(C)C)C(=O)N(C)[C@@H](CC(C)C)C(=O)N(C)[C@@H](C(C)C)C(=O)N1C` [[(R)-(3-(N-Morpholino)propoxy)methyl-Sar]-3-[(γ-hydroxy)-N-MeLeu]-4-cyclosporin], the EC50 stood at 90 nM.

The same assay, now with this note: Hepatitis C virus, Huh-7, HCV subgenomic replicon, cell line ET (luc-ubi-neo/ET) Huh7, luciferase end point; read-out: Antiviral activity EC50.
For `C/C=C/C[C@@H](C)[C@@H](O)[C@H]1C(=O)N[C@@H](CC)C(=O)N(C)[C@H](COCCN(C)C)C(=O)N(C)[C@@H](CC(C)C)C(=O)N[C@@H](C(C)C)C(=O)N(C)[C@@H](CC(C)C)C(=O)N[C@@H](C)C(=O)N[C@H](C)C(=O)N(C)[C@@H](CC(C)C)C(=O)N(C)[C@@H](CC(C)C)C(=O)N(C)[C@@H](C(C)C)C(=O)N1C` [[(R)-(2-(N,N-Dimethylamino)ethoxy)methyl-Sar]-3-cyclosporin], the EC50 is 150 nM.

The assay is the same for the next values; noted with them: Table 12, HCV replicon luciferase; read-out: Antiviral activity EC50.
With `C/C=C/C[C@@H](C)[C@@H](O)[C@H]1C(=O)N[C@@H](CC)C(=O)N(C)[C@H](SCCN(CC)CC)C(=O)N(C)[C@@H](C(C)CC)C(=O)N[C@@H](C(C)C)C(=O)N(C)[C@@H](CC(C)C)C(=O)N[C@@H](C)C(=O)N[C@H](C)C(=O)N(C)[C@@H](CC(C)C)C(=O)N(C)[C@@H](CC(C)C)C(=O)N(C)[C@@H](C(C)C)C(=O)N1C` (stereo partly drawn) [(R)-2-(N,N-Diethylamino)ethylthio-Sar]-3-[N-MeIle]-4-cyclosporin] (cyclo(A[dA][NMeL][NMeL][NMeV][MeBmt][Abu][X6][NMeIle(3ξ)]V[NMeL])), the 50% effective concentration (EC50) was 1870 nM.

`C/C=C/C[C@@H](C)[C@@H](O)[C@H]1C(=O)N[C@@H](CC)C(=O)N(C)[C@H](SCCN(CC)CC)C(=O)N(C)[C@@H](C(C)C)C(=O)N[C@@H](C(C)C)C(=O)N(C)[C@@H](CC(C)C)C(=O)N[C@@H](C)C(=O)N[C@H](C)C(=O)N(C)[C@@H](CC(C)C)C(=O)N(C)[C@@H](CC(C)C)C(=O)N(C)[C@@H](C(C)C)C(=O)N1C` [(R)-2-(N,N-Diethylamino)ethylthio-Sar]-3-[N-MeVal]-4-cyclosporin] (cyclo(A[dA][NMeL][NMeL][NMeV][MeBmt][Abu][X6][NMeV]V[NMeL])): the EC50 was determined as 3660 nM.

For `CC=CCC(C)C(O)C1C(=O)NC(CC)C(=O)N(C)C(SCCNCC(C)(C)C)C(=O)N(C)C(CC(C)C)C(=O)NC(C(C)C)C(=O)N(C)C(CC(C)C)C(=O)NC(C)C(=O)NC(C)C(=O)N(C)C(CC(C)C)C(=O)N(C)C(CC(C)C)C(=O)N(C)C(C(C)C)C(=O)N1C` [(R)-2-(N-neo-Pentylamino)ethylthio-Sar]-3-cyclosporin], the 50% effective concentration (EC50) was determined as 3090 nM.

As to `C/C=C/C[C@@H](C)[C@@H](O)[C@H]1C(=O)N[C@@H](CC)C(=O)N(C)[C@@H](SCCN(CC)CC)C(=O)N(C)[C@@H](C(C)C)C(=O)N[C@@H](C(C)C)C(=O)N(C)[C@@H](CC(C)C)C(=O)N[C@@H](C)C(=O)N[C@H](C)C(=O)N(C)[C@@H](CC(C)C)C(=O)N(C)[C@@H](CC(C)C)C(=O)N(C)[C@@H](C(C)C)C(=O)N1C` [(S)-2-(N,N-Diethylamino)ethylthio-Sar]-3-[N-MeVal]-4-cyclosporin] (cyclo(A[dA][NMeL][NMeL][NMeV][MeBmt][Abu][X8][NMeV]V[NMeL])), the concentration for a half-maximal effect (EC50) was 40 nM.

On to `CC=CCC(C)C(O)C1C(=O)NC(CC)C(=O)N(C)C(SCCN(C)C)C(=O)N(C)C(C(C)C)C(=O)NC(C(C)C)C(=O)N(C)C(CC(C)C)C(=O)NC(C)C(=O)NC(C)C(=O)N(C)C(CC(C)C)C(=O)N(C)C(CC(C)C)C(=O)N(C)C(C(C)C)C(=O)N1C` [(S)-2-(N,N-Dimethylamino)ethylthio-Sar]-3-[N-MeVal]-4-cyclosporin], for which the EC50 is 130 nM.

Consider `CC=CCC(C)C(O)C1C(=O)NC(CC)C(=O)N(C)C(SCCN(CC)CC)C(=O)N(C)C(CC(C)C)C(=O)NC(C(C)C)C(=O)N(C)C(CC(C)C)C(=O)NC(C)C(=O)NC(C)C(=O)N(C)C(CC(C)C)C(=O)N(C)C(CC(C)C)C(=O)N(C)C(C(C)C)C(=O)N1C` [(S)-2-(N-Diethylamino)ethylthio-Sar]-3-cyclosporin], for which the concentration giving a half-maximal response (EC50) came out at 160 nM.

With `CC=CCC(C)C(O)C1C(=O)NC(CC)C(=O)N(C)C(SCCN(CC(C)C)C(C)C)C(=O)N(C)C(CC(C)C)C(=O)NC(C(C)C)C(=O)N(C)C(CC(C)C)C(=O)NC(C)C(=O)NC(C)C(=O)N(C)C(CC(C)C)C(=O)N(C)C(CC(C)C)C(=O)N(C)C(C(C)C)C(=O)N1C` [(S)-2-(N-iso-Butyl-N-iso-propylamino)ethylthio-Sar]-3-cyclosporin], the EC50 came to 480 nM.

For `CC=CCC(C)C(O)C1C(=O)NC(CC)C(=O)N(C)C(SCCNCC(C)(C)C)C(=O)N(C)C(CC(C)C)C(=O)NC(C(C)C)C(=O)N(C)C(CC(C)C)C(=O)NC(C)C(=O)NC(C)C(=O)N(C)C(CC(C)C)C(=O)N(C)C(CC(C)C)C(=O)N(C)C(C(C)C)C(=O)N1C` [(S)-2-(N-neo-Pentylamino)ethylthio-Sar]-3-cyclosporin], the EC50 was 230 nM.

The same assay, now with this note: Table 13, HCV replicon luciferase; read-out: Antiviral activity EC50.
For `C/C=C/C[C@@H](C)[C@@H](O)[C@H]1C(=O)N[C@@H](CC)C(=O)N(C)[C@H](CSCCN(CC)CC)C(=O)N(C)[C@@H](CC(C)(C)O)C(=O)N[C@@H](C(C)C)C(=O)N(C)[C@@H](CC(C)C)C(=O)N[C@@H](C)C(=O)N[C@H](C)C(=O)N(C)[C@@H](CC(C)C)C(=O)N(C)[C@@H](CC(C)C)C(=O)N(C)[C@@H](C(C)C)C(=O)N1C` (single isomer, unassigned; isomer b), the EC50 turned out to be 30 nM.

Consider `CC=CCC(C)C(O)C1C(=O)NC(CC)C(=O)N(C)C(SCCCN(CC)CC)C(=O)N(C)C(CC(C)(C)O)C(=O)NC(C(C)C)C(=O)N(C)C(CC(C)C)C(=O)NC(C)C(=O)NC(C)C(=O)N(C)C(CC(C)C)C(=O)N(C)C(CC(C)C)C(=O)N(C)C(C(C)C)C(=O)N1C` [(S)-3-(N,N-Diethylamino)propylthio-Sar]-3-[(γ-hydroxy)-N-MeLeu]-4-cyclosporin], for which the EC50 was 70 nM.

The assay is the same for the next values; noted with them: Table 14, HCV replicon luciferase; read-out: Antiviral activity EC50.
For the compound `C/C=C/C[C@@H](C)[C@@H](O)[C@H]1C(=O)N[C@@H](CC)C(=O)N(C)[C@H](CSCCN(C)C)C(=O)N(C)[C@@H](CC(C)(C)O)C(=O)N[C@@H](C(C)C)C(=O)N(C)[C@@H](CC(C)C)C(=O)N[C@@H](C)C(=O)N[C@H](C)C(=O)N(C)[C@@H](CC(C)C)C(=O)N(C)[C@@H](CC(C)C)C(=O)N(C)[C@@H](C(C)C)C(=O)N1C` (single isomer, unassigned; isomer b) [listing 2 of 2 here], the EC50 amounted to 50 nM.
